# “Also recorded” adds a separate entry of the source. Where two headings read alike, the source gives them in different places.
# How the values were obtained:
# [1] = test system: lepB(P29S) S. aureus 8325; assay: microbe, parasite or virus in culture; assay type: cell-based, Staphylococcus aureus; conditions: for MIC: Sensitive (genetically sensitized) strain
# [2] = test system: lepB(P84L) P. aeruginosa PAO1; assay: microbe, parasite or virus in culture; assay type: cell-based, Pseudomonas aeruginosa
# [3] = test system: lepB(P84L) E. coli MG1655; assay: microbe, parasite or virus in culture; assay type: cell-based, Escherichia coli
# [4] = test system: wild type S. epidermidis RP62A; assay: microbe, parasite or virus in culture; assay type: cell-based, Staphylococcus epidermidis; conditions: for MIC: Sensitive strain (SPase without the resistance-conferring Pro)
# [5] = test system: spsB(S29P) S. epidermidis RP62A; assay: microbe, parasite or virus in culture; assay type: cell-based, Staphylococcus epidermidis
# [6] = test system: wild type E. coli MG1655; assay: microbe, parasite or virus in culture; assay type: cell-based, Escherichia coli
# [7] = test system: wild type P. aeruginosa PAO1; assay: microbe, parasite or virus in culture; assay type: cell-based, Pseudomonas aeruginosa
# [8] = test system: wild type S. aureus 8325; assay: microbe, parasite or virus in culture; assay type: cell-based, Staphylococcus aureus; conditions: for MIC: Resistant strain (wild type)
# [9] = test system: Gram-negative strains (E. coli, P. aeruginosa); assay: MIC panel; assay type: cell-based; conditions: wild type or mutant Gram-negative strains
# [10] = Table 3, P3 position derivatives, unit not given
# [11] = Sensitive (genetically sensitized) strain
# [12] = Staphylococcus aureus, read-out: MIC
# [13] = Staphylococcus epidermidis, read-out: MIC
# [14] = Pseudomonas aeruginosa, PAO1, Sensitive (genetically sensitized) strain, read-out: MIC
# [15] = Escherichia coli, MG1655, Resistant strain (wild type), read-out: MIC
# [16] = Pseudomonas aeruginosa, PAO1, Resistant strain (wild type), read-out: MIC
# [17] = Escherichia coli, MG1655, Sensitive (genetically sensitized) strain, read-out: MIC
Compound,"MIC [1, 12] [µg/mL]","MIC [5, 13] [µg/mL]","MIC [2, 14] [µg/mL]","MIC [6, 15] [µg/mL]","MIC [7, 16] [µg/mL]","MIC [3, 17] [µg/mL]","MIC [4, 13] [µg/mL]","MIC [8, 12] [µg/mL]",further results
CCCCCCCCCCCCCCCC(=O)N(C)[C@H](CO)C(=O)N[C@H](C)C(=O)NCC(=O)N(C)[C@@H]1C(=O)N[C@@H](CC(C)C)C(=O)N[C@H](C(=O)O)Cc2ccc(O)c(c2)-c2cc1ccc2O [Compound 35],,,,,,,,,minimal inhibitory concentration (MIC) [1]: 32; fold loss of activity relative to arylomycin C16 [2]: > 16 fold; minimal inhibitory concentration (MIC) [2]: >64; activity in words [3]: maintained activity; minimal inhibitory concentration (MIC) [3]: 4; minimal inhibitory concentration (MIC) [4]: 2
CCCCCCCCCCCCCCCC(=O)N(C)[C@H](CO)C(=O)N[C@H](C)C(=O)NCC(=O)N(C)[C@@H]1C(=O)N[C@@H](C(C)C)C(=O)N[C@H](C(=O)O)Cc2ccc(O)c(c2)-c2cc1ccc2O [Compound 34],,,,,,,,,"minimal inhibitory concentration (MIC) [1, 10]: 32; fold loss of activity relative to arylomycin C16 [2]: 4 fold; minimal inhibitory concentration (MIC) [2, 10]: 16; activity in words [3]: maintained activity; minimal inhibitory concentration (MIC) [3, 10]: 4; minimal inhibitory concentration (MIC) [4, 10]: 4"
CCc1ccc(-c2ccc(C(=O)N(C)[C@H](CO)C(=O)N[C@H](C)C(=O)NCC(=O)N(C)[C@@H]3C(=O)N[C@@H](C)C(=O)N[C@H](C(=O)O)Cc4ccc(O)c(c4)-c4cc3ccc4O)cc2)cc1 [Compound 10],,,,,,,,,"MIC [1]: 64 µg/mL; MIC [5]: >64 µg/mL; MIC [2, 11]: >64 µg/mL; MIC ([6]; Resistant strain (wild type)): >64 µg/mL; MIC ([7]; Resistant strain (wild type)): >64 µg/mL; MIC [3, 11]: 16 µg/mL; MIC [4]: 8 µg/mL; MIC [8]: >64 µg/mL"
CCCCCCCCc1ccc(-c2ccc(C(=O)N(C)[C@H](CO)C(=O)N[C@H](C)C(=O)NCC(=O)N(C)[C@@H]3C(=O)N[C@@H](C)C(=O)N[C@H](C(=O)O)Cc4ccc(O)c(c4)-c4cc3ccc4O)cc2)cc1 [Compound 12],8,32,> 64,> 64,> 64,1,0.5,64,activity in words [5]: active
CCCCCCCCc1ccc(C(=O)N(C)[C@H](CO)C(=O)N[C@H](C)C(=O)NCC(=O)N(C)[C@@H]2C(=O)N[C@@H](C)C(=O)N[C@H](C(=O)O)Cc3ccc(O)c(c3)-c3cc2ccc3O)cc1 [Compound 14],64,> 64,> 64,> 64,> 64,32,8,> 64,
CCCCCCCCCCCCCCCC(=O)N(C)[C@H](CO)C(=O)N[C@H](C)C(=O)NCC(=O)N(C)[C@@H]1C(=O)NCC(=O)N[C@H](C(=O)O)Cc2ccc(O)c(c2)-c2cc1ccc2O [Compound 26],,,,,,,,,fold loss of activity relative to arylomycin C16 [1]: > 16 fold; minimal inhibitory concentration (MIC) [1]: >64; fold loss of activity relative to arylomycin C16 [2]: > 16 fold; minimal inhibitory concentration (MIC) [2]: >64; fold loss of activity relative to arylomycin C16 [3]: 32 fold; minimal inhibitory concentration (MIC) [3]: 16; fold loss of activity relative to arylomycin C16 [4]: 32 fold; minimal inhibitory concentration (MIC) [4]: 8
CCCCCCCCCCCCCCCC(=O)N(C)[C@H](CO)C(=O)N[C@H](C)C(=O)NCC(=O)N(C)[C@@H]1C(=O)N[C@@H](CCC)C(=O)N[C@H](C(=O)O)Cc2ccc(O)c(c2)-c2cc1ccc2O [Compound 28],,,,,,,,,"minimal inhibitory concentration (MIC) [1, 10]: 8; minimal inhibitory concentration (MIC) [2, 10]: 8; minimal inhibitory concentration (MIC) [3, 10]: 2; minimal inhibitory concentration (MIC) [4, 10]: 1"
CCCCCCCCCCCCCCCC(=O)N1CC(O)C[C@@H]1C(=O)N[C@H](C)C(=O)NCC(=O)N(C)[C@@H]1C(=O)N[C@@H](C)C(=O)N[C@H](C(=O)O)Cc2ccc(O)c(c2)-c2cc1ccc2O (some centres unmarked) [Compound 19],4,8,> 64,> 64,> 64,> 64,4,> 64,
C[C@@H]1NC(=O)[C@@H](N(C)C(=O)CNC(=O)[C@@H](C)NC(=O)[C@@H](CO)N(C)C(=O)c2ccc(-c3ccccc3)cc2)c2ccc(O)c(c2)-c2cc(ccc2O)C[C@@H](C(=O)O)NC1=O [Compound 8],> 64,> 64,> 64,> 64,> 64,> 64,32,> 64,activity in words [4]: retains some activity
CCc1ccc(-c2ccc(C(=O)N(C)[C@H](CO)C(=O)N[C@H](C)C(=O)NCC(=O)N(C)[C@@H]3C(=O)N[C@@H](C)C(=O)N[C@H](C(=O)O)Cc4ccc(O)c(c4)-c4cc3ccc4O)cc2)cc1 [Compound 9],> 64,> 64,> 64,> 64,> 64,,,> 64,"MIC [3, 11]: >64 µg/mL; MIC [4]: 64 µg/mL"
CCCCCCCCCCCCCCCC(=O)N(C)[C@H](CO)C(=O)N[C@H](C)C(=O)NCC(=O)N(C)[C@@H]1C(=O)N[C@@H](CCCCC)C(=O)N[C@H](C(=O)O)Cc2ccc(O)c(c2)-c2cc1ccc2O [Compound 30],,,,,,,,,"fold loss of activity relative to arylomycin C16 [1]: 32 fold; minimal inhibitory concentration (MIC) [1, 10]: 16; minimal inhibitory concentration (MIC) [2, 10]: >128; minimal inhibitory concentration (MIC) [3, 10]: >128; minimal inhibitory concentration (MIC) [4, 10]: 4"
CCCCCCCCCCc1ccc(C(=O)N(C)[C@H](CO)C(=O)N[C@H](C)C(=O)NCC(=O)N(C)[C@@H]2C(=O)N[C@@H](C)C(=O)N[C@H](C(=O)O)Cc3ccc(O)c(c3)-c3cc2ccc3O)cc1 [Compound 15],8,> 64,64,> 64,> 64,8,1,> 64,activity in words [8]: has activity; also recorded: gains activity
CCCCCCCCCCCCCCCC(=O)N(C)[C@H](CO)CC(=O)N[C@H](C)C(=O)NCC(=O)N(C)[C@@H]1C(=O)N[C@@H](C)C(=O)N[C@H](C(=O)O)Cc2ccc(O)c(c2)-c2cc1ccc2O [Compound 23],16,8,> 64,> 64,> 64,> 64,4,64,activity in words [8]: gain activity
CCCCCCCCCCCCCCCC(=O)N(C)[C@H](CO)C(=O)N(C)[C@H](C)C(=O)NCC(=O)N(C)[C@@H]1C(=O)N[C@@H](C)C(=O)N[C@H](C(=O)O)Cc2ccc(O)c(c2)-c2cc1ccc2O [Compound 18],> 64,> 64,> 64,> 64,> 64,> 64,> 64,> 64,activity in words [5]: retained full activity; activity in words [9]: complete loss of activity
CCCCCCCCCCCCCCCC(=O)N(C)[C@H](CO)C(=O)N[C@H](C)C(=O)NCC(=O)N(C)[C@@H]1C(=O)N[C@@H](C)C(=O)N[C@H](C(=O)O)Cc2ccc(O)c(c2)-c2cc1ccc2O [Compound 25],64,,,,,,32,,activity in words [9]: no activity
CCCCCCCCCCCCCCCC(=O)N(C)[C@H](CO)C(=O)N[C@H](C)C(=O)NCC(=O)N(C)[C@@H]1C(=O)N[C@@H](CC)C(=O)N[C@H](C(=O)O)Cc2ccc(O)c(c2)-c2cc1ccc2O [Compound 27],,,,,,,,,minimal inhibitory concentration (MIC) [1]: 8; minimal inhibitory concentration (MIC) [2]: 4; minimal inhibitory concentration (MIC) [3]: 1; minimal inhibitory concentration (MIC) [4]: 0.5
CCCCCCCCCCCCCCCC(=O)N(C)[C@H](CO)CCC(=O)N[C@H](C)C(=O)NCC(=O)N(C)[C@@H]1C(=O)N[C@@H](C)C(=O)N[C@H](C(=O)O)Cc2ccc(O)c(c2)-c2cc1ccc2O [Compound 24],4,16,> 64,> 64,> 64,> 64,8,16,
CCCCCCCCCCCCCCCC(=O)N(C)[C@H](CO)C(=O)N[C@H](C)C(=O)NCC(=O)N(C)[C@@H]1C(=O)N[C@@H](CCCC)C(=O)N[C@H](C(=O)O)Cc2ccc(O)c(c2)-c2cc1ccc2O [Compound 29],,,,,,,,,fold loss of activity relative to arylomycin C16 [1]: 32 fold; minimal inhibitory concentration (MIC) [1]: 16; minimal inhibitory concentration (MIC) [2]: >128; minimal inhibitory concentration (MIC) [3]: >128; minimal inhibitory concentration (MIC) [4]: 4
CCCCCCc1ccc(C(=O)N(C)[C@H](CO)C(=O)N[C@H](C)C(=O)NCC(=O)N(C)[C@@H]2C(=O)N[C@@H](C)C(=O)N[C@H](C(=O)O)Cc3ccc(O)c(c3)-c3cc2ccc3O)cc1 [Compound 13],8,16,> 64,> 64,> 64,1,1,16,
CCCCCCCCCCCCCCCC(=O)N(C)[C@H](CO)C(=O)N[C@H](C)C(=O)NCC(=O)N(C)[C@@H]1C(=O)NC(CC(F)(F)F)C(=O)N[C@H](C(=O)O)Cc2ccc(O)c(c2)-c2cc1ccc2O (some centres unmarked) [Compound 33],,,,,,,,,"fold loss of activity relative to arylomycin C16 [1]: at least 16 fold; minimal inhibitory concentration (MIC) [1, 10]: >64; fold loss of activity relative to arylomycin C16 [2]: at least 16 fold; minimal inhibitory concentration (MIC) [2, 10]: >64; fold loss of activity relative to arylomycin C16 [3]: 8 fold; minimal inhibitory concentration (MIC) [3, 10]: 16; fold loss of activity relative to arylomycin C16 [4]: 32 fold; minimal inhibitory concentration (MIC) [4, 10]: 8"
